Measurements from patent publication US4444776A, “Dipyrido (4,3-B) (3,4-F) indoles, process for obtaining them, therapeutical use and pharmaceutical compositions” (priority 1977, dated 1984).

How the values were obtained:
[1] = Test 8: acute toxicity in vivo, ICFW mice; settings: mouse, read-out: LD 500
Procedure: (§1) Test 8: Acute toxicity in vivo
(§2) The products to be tested were injected by the IP route into groups of 10 mice at various dilutions. Each day, the number of dead animals is noted. If the doses are well chosen, a 100% lethal dose and a 50% lethal dose have been able to be defined for each product. This study is limited to two months. Two isogenic mouse strains were systematically used: C3H/He and ICFW.

ICFW mice = experiment: Test 8: acute toxicity in vivo, ICFW mice; settings: mouse, ip
Procedure: as §1, §2

C3H/He mice = experiment: Test 8: acute toxicity in vivo, C3H mice; settings: mouse, ip
Procedure: as §1, §2

[2] = Test 8: acute toxicity in vivo, C3H mice; settings: mouse, read-out: LD 500
Procedure: as §1, §2

[3] = system: chloromonocytary tumoral cells; experiment: Test 9: action on chloromonocytary tumoral cells (chloroleukemia); format: in vivo, ICFW mouse
Procedure: Test 9: Action on chloromonocytary tumoral cells
In this test, the action of the products according to the invention on chloromonocytary tumoral cells was determined according to the chloroleukemia of the mouse test (ICFW mouse, co-sanguine CFW strain) isolated in Unit 22 (B. TAMBOURIN and F. WENDLING) of the "Institut National de la Sante et de la Recherche Medicale- Paris" (I.N.S.E.R.M.) in a mouse injected with a variant of the Friend virus.
The tumour kills all the animals injected in 19.3± 2 days. This tumour develops in semi-solid ascitic form; the peritoneum is invaded, both by solid tumoral masses and cells in suspension in the ascitic liquid. The tumour is transmitted by the cells of the suspension which produce the tumoral masses and the ascitic cells.

Friend leukemia virus = experiment: Test 2: viro-induced Friend leukemia (Table II); format: in vivo, DBA2 mice; settings: for mean spleen weight (range): 21 days after virus; for ILS % / Weight of the spleens on the 21st day / Mean survival time (first-last death): VFA 1/250, 5 hrs after the virus
Description: The protective power of the compounds according to the invention have also been sought on the Friend viro-induced leukemia (J. Exp. Med. 1957-105-307-318) and it has been determined that the compounds according to the invention are antiviral and antitumoral agents in lower animals.
Test 2. Viro-induced Leukemia: Friend leukemia
The protective power of the compounds according to the invention was sought on Friend leukemia, inoculated into DBA2 mice aged from 5-6 weeks. The viral inoculum was produced from a homogenate of leukemic spleen (p/volume) diluted to 1/250 in isotonic phosphate buffer without Ca^++ nor Mg^++ (PBS), corresponding to 100 SD 50 (i.e. to the dose of virus which induces a splenomegaly in 50% of the inoculated mice).
The virus was injected by the IP route and in a volume of 0.2 ml. The product to be tested was injected 5 hours after the virus or 1 day after the virus at the dose indicated in a volume of 0.1 ml (IP route). Each group of twenty control mice received the virus and a placebo or the product to be tested, 10 mice were sacrified on the 21st day, and their spleen removed and weighed. The mice were considered as leukemic when the weight of their spleen exceed 200 mg. For the 10 mice, the life span of the animals was determined.

leukemic cells = experiment: Test 20: combination of compound 21 with other drugs (Table XV); settings: 10^5 cells, BD 40 20 mg/kg day +4, Endoxan 100 mg/kg day +3
Procedure: A priming dose of endoxan (100 mg/kg) was given 3 days after 10^5 leukemic cells (20 mice).

L 1210 leukemia = experiment: Test 12: single vs fractioned dose, L 1210 leukemic mice (Table IX); format: in vivo, mouse; set-up: MTS: unit not given beside the values
mice = experiment: Test 21: toxicity after intraperitoneal injection
Procedure: All drugs were dissolved in aqueous solutions adjusted at pH 5 with acetic acid and inoculated to the mice under a volume of 0.1 ml I.P. after dilution in Mac Coy's medium.
The toxicity of the drugs after intraperitoneal injection was estimated from the mortality rate up to the 30th day.

new-born mice = experiment: Test 4: toxicity on new-born mice, IP; format: in vivo, mouse; settings: new-born mice
Description: Test 4: Investigation of the toxicity
The toxic dose has been sought, on adult ([…]×DBA/2) Fl mice and on new-born mice, of the compounds of the invention by injection by the IP route. The results obtained are given hereinafter:
2-On new-born mice (IP route)

L1210 leukemia = experiment: Test 16: structure-activity of R'1 substitution, L1210 (Table XII); format: in vivo, mouse (C57B16xDBA/2)F1; set-up: MST: unit not given here; settings: for 60 days surv. / ILS % / MST / Range of death: day +1
Procedure: Test 16: Relationship between structure and activity of various dipyrido indoles differing by the R'1 substitution.
L1210 leukemia has been maintained by weekly passages on (C57B16xDBA/2)F1 mice. On day 0, mice were inoculated by I.P. route with various numbers of L1210 ascitic tumor cells in volumes of 0.1 ml. Subsequently as indicated, drugs were administrated in Ca^++ and Mg^++ free PBS solutions (Gibco) or in Mac Coy's medium (Gibso or Microbiological Associates). […]

[4] = 10^4 cells, 0.2 mg/mouse single at J+3
[5] = 10^4 cells, 4 × 0.05 mg/mouse at J+3+4+5+6
[6] = 10^5 cells, 0.2 mg/mouse single at J+3
[7] = 10^5 cells, 4 × 0.05 mg/mouse at J+3+4+5+6
[8] = 10^4 cells, 5 mg/kg, control MST 11.8
[9] = second group: 10^4 cells, 5 mg/kg, control MST 10.9

Compound: Cc1c2ccncc2c(C)c2c1[nH]c1ccncc12 [Example 1, 5,11-dimethyl dipyrido [4,3-b][3,4-f] indole]
- LD50 ([1]; ip): 150 mg/kg
- LD 100 (ICFW mice): 200 mg/kg
- LD 100 (C3H/He mice): 200 mg/kg
- LD50 ([2]; ip): 100 mg/kg
- Mean survival time after treatment ([3]; 40 mg/kg 6 hours after inoculation, without treatment 18.5 ± 2 days): 25.3 ± 3.1 days
- mean spleen weight (range) (Friend leukemia virus; 25 mg/kg): 1,803 (718-2,635) mg
- mean spleen weight (range) (Friend leukemia virus; 50 mg/kg): 960 (373-1,230) mg
- ILS % (Friend leukemia virus; 0.1 mg): 59.5%
- Weight of the spleens on the 21st day (Friend leukemia virus; 0.1 mg): 2013 mg
- Mean survival time (first-last death) (Friend leukemia virus; 0.1 mg, IP): 47.6 (26-78) Days
- ILS % (Friend leukemia virus; 0.5 mg): 14.6%
- Mean survival time (first-last death) (Friend leukemia virus; 0.5 mg): 34.2 (22.54) Days
- Weight of the spleens on the 21st day (Friend leukemia virus; 0.5 mg): 1803 mg
- ILS % (Friend leukemia virus; 1 mg): 39.7%
- Mean survival time (first-last death) (Friend leukemia virus; 1 mg): 41.7 (14-81) Days
- Weight of the spleens on the 21st day (Friend leukemia virus; 1 mg): 959,6 mg

Compound: CCN(CC)CCCNc1nccc2c(C)c3[nH]c4ccncc4c3cc12 [Example 7, 1-(γ-diethylaminopropyl)amino-5-methyl-dipyrido-[4,3-b][3,4-f] indole]
- ILS % (leukemic cells; BCNU 2 mg/kg): 65.2%
- Range of death (leukemic cells; BCNU 2 mg/kg immediately after endoxan): 14-32
- MST (leukemic cells; BCNU 2 mg/kg, control 11.2): 18.5
- LD50 ([1]; ICFW, IP): 15 mg/kg
- LD 100 (ICFW mice): 25 mg/kg
- ILS % (L 1210 leukemia; [4]): 19.32%
- MTS (L 1210 leukemia; [4]): 14.2
- Surviving mice (L 1210 leukemia; [4]): 1
- ILS % (L 1210 leukemia; [5]): 21%
- MTS (L 1210 leukemia; [5]): 14.4
- Surviving mice (L 1210 leukemia; [5]): 0
- ILS % (L 1210 leukemia; [6]): 36.35%
- MTS (L 1210 leukemia; [6]): 14.18
- ILS % (L 1210 leukemia; [7]): 28.85%
- MTS (L 1210 leukemia; [7]): 13.4
- antitumoral activity, single vs fractioned dose (L 1210 leukemia; same dose single or on 4 occasions): a single dose has greater antitumoral activity than the same dose injected on 4 occasions
- time of deaths after drug administration (mice; IP): 4 to 8 days
- minimal quantity resulting in 100% deaths (mice; IP, mortality up to the 30th day): 50 mg/kg
- toxicity (toxic dose) (mice; Test 17 text): 50 mg/kg
- LD 100 (C3H/He mice): 35 mg/kg
- LD50 ([2]; C3H, IP): 20 mg/kg
- toxic dose (new-born mice): higher than 2.5 mg/kg of mouse
- 60 days surv. (L1210 leukemia; 10^3 cells, 0.5 mg/kg): 3
- ILS % (L1210 leukemia; 10^3 cells, 0.5 mg/kg): 17.4%
- MST (L1210 leukemia; 10^3 cells, 0.5 mg/kg): 16.2
- Range of death (L1210 leukemia; 10^3 cells, 0.5 mg/kg): 14-20
- 60 days surv. (L1210 leukemia; 10^3 cells, 5 mg/kg): 5
- ILS % (L1210 leukemia; 10^3 cells, 5 mg/kg): 23.2%
- MST (L1210 leukemia; 10^3 cells, 5 mg/kg): 17
- Range of death (L1210 leukemia; 10^3 cells, 5 mg/kg): 15-22
- 60 days surv. (L1210 leukemia; 10^4 cells, 0.5 mg/kg): 0
- ILS % (L1210 leukemia; 10^4 cells, 0.5 mg/kg): 11.5%
- MST (L1210 leukemia; 10^4 cells, 0.5 mg/kg): 13.54
- Range of death (L1210 leukemia; 10^4 cells, 0.5 mg/kg): 11-15
- 60 days surv. (L1210 leukemia; [8]): 1
- ILS % (L1210 leukemia; [8]): 33.3%
- MST (L1210 leukemia; [8]): 16.2
- Range of death (L1210 leukemia; [8]): 13-21
- antitumoral activity compared with Ellipticinium acetate (HUM) (L1210 leukemia; Table XII summary): compete favorably with Ellipticinium acetate (HUM)
- 60 days surv. (L1210 leukemia; [9]): 1
- ILS % (L1210 leukemia; [9]): 65.1%
- MST (L1210 leukemia; [9]): 18
- Range of death (L1210 leukemia; [9]): 14-21
- Mean survival time after treatment ([3]; 1 mg/kg 24 hours after inoculation, without treatment 18.9 ± 1.8 day): 29.0 ± 3.0 days
